Measured values published in publication PMC3109436 (Journal of medicinal chemistry, 2009).
Where “and” joins values, the source holds several entries; their conditions need not be identical. Equal values may be shown once. Entries after “also recorded” stand apart in the source; their conditions may differ. Read-outs that look alike come from different tables or passages of the source. Marks after values point to notes of the source that are not given here.

How the values were obtained:
[1] = target: T1, human A3AR (Homo sapiens, UniProt P0DMS8); assay: Inhibition of forskolin-stimulated cAMP production; conditions: for agonist character at hA3AR in the adenylate cyclase (cAMP) assay: relative to full agonist 51
T1 sequence (P0DMS8 1-318): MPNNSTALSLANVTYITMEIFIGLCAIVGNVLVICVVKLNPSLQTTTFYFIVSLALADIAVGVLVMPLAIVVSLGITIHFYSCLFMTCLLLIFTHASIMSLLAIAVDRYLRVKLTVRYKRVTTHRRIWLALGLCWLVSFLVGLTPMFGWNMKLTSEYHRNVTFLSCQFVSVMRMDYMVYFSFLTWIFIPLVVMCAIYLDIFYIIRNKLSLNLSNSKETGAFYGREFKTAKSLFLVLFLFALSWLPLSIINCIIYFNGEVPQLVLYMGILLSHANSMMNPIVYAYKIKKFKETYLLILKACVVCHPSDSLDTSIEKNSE

[2] = target: T2, human A2A adenosine receptor (hA2AAR) (Homo sapiens, UniProt P29274); assay: Radioligand binding at human A2AAR, membranes of HEK293 cells
[3] = target: T3, human A3 adenosine receptor (hA3AR) (Homo sapiens, UniProt P0DMS8); assay: Radioligand binding at human A3AR, membranes of CHO cells
T3 sequence (P0DMS8 1-318): T1 sequence (P0DMS8 1-318)

[4] = test system: A3AR; conditions: at 10 μM, percentage of full effect induced by 10 μM 51; cited from earlier work
[5] = target: T2, human A2A adenosine receptor (hA2AAR); conditions: cited from earlier work; for % inhibition of radioligand binding A2A: at 10 μM
[6] = target: T1, human A3AR; conditions: at 10 μM, relative to 51 (= 100%); cited from earlier work
[7] = target: T4, rA3AR (Rattus norvegicus, UniProt P28647); assay: Radioligand binding at rat A3AR
T4 sequence (P28647 1-320): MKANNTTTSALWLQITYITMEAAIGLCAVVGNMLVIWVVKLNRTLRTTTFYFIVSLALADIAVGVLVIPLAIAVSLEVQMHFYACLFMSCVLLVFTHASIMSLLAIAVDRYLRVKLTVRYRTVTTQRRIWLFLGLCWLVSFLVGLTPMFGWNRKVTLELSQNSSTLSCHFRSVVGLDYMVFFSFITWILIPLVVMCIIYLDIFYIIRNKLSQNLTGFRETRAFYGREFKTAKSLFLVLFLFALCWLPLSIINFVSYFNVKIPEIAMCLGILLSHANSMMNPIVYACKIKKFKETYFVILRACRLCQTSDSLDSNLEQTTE

[8] = target: T5, human A1 adenosine receptor (hA1AR) (Homo sapiens, UniProt P30542); assay: Radioligand binding at human A1AR, membranes of CHO cells
T5 sequence (P30542 1-326): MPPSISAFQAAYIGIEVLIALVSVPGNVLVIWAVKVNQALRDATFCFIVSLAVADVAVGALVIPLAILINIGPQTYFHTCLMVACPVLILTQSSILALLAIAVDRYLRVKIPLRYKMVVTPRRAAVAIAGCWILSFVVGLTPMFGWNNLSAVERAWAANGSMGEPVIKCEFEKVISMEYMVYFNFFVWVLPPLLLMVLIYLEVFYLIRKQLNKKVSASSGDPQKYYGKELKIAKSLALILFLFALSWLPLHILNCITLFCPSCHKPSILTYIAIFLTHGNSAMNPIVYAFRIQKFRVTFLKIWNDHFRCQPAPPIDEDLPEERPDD

T2 sequence (P29274 whole entry): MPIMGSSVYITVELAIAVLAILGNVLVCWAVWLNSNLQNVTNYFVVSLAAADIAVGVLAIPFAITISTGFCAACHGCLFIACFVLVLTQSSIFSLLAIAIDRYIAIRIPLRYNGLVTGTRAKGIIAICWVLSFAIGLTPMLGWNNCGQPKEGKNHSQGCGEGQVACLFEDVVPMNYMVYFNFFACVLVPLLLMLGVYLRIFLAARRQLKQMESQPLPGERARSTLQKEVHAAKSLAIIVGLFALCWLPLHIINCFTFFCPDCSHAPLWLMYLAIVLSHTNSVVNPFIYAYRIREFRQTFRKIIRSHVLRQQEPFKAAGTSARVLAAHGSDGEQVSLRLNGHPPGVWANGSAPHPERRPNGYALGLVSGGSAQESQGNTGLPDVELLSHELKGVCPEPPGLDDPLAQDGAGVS

SMILES: O[C@@H]1[C@H](O)[C@@H]2C[C@@H]2[C@H]1n1cnc2c(NCc3cccc(I)c3)ncnc21 [Compound 23, (1′R,2′R,3′S,4′ S,5′ S)-4′-[6-(3-Iodobenzylamino)purine]-2′,3′-dihydroxybicyclo[3.1.0]hexane]
- agonist character at hA3AR in the adenylate cyclase (cAMP) assay [1]: nearly full agonism
- Ki [2]: 2330 ± 680 nM
- Ki [3]: 11 ± 2.2 nM

SMILES: CNC(=O)[C@]12C[C@@H]1[C@@H](n1cnc3c(NCc4cccc(Cl)c4)nc(C#CCCC(=O)NCCNC(=O)CCCC[C@H]4SC[C@H]5NC(=O)N[C@H]54)nc31)[C@H](O)[C@@H]2O [Compound 17a, (1′S,2′R,3′S,4′S,5′S)-4′-[6-(3-Chiorobenzylamino)-2-(N-biotinyl(β-aminoethylaminocarbonyl)-1-butynyl)-9-yl]-2′, 3′-dihydroxybicyclo[3.1.0]hexane-1′-carboxylic Acid N-Methylamide]
- EC50 [1]: 2.5 ± 0.42 nM

SMILES: O[C@@H]1[C@H](O)[C@@H]2C[C@@H]2[C@H]1n1cnc2c(NCc3cccc(Cl)c3)nc(Cl)nc21 [Compound 2a]
- % efficacy, A3 (stimulation of [35S]GTPγS binding) [4]: 2.9 ± 3.7 ^f %

SMILES: CNC(=O)[C@@]12C[C@@H]1[C@@H](n1cnc3c(NCc4cccc(I)c4)nc(Cl)nc31)[C@H](O)[C@@H]2O [Compound 1b, reference compound]
- Ki ([5]; read-out: affinity (Ki) A2A, HEK293 cells expressing hA2AAR): 784 ± 97 nM
- % efficacy, A3 (inhibition of forskolin-stimulated cAMP production) [6]: 100 ^c %

SMILES: CNC(=O)[C@]12C[C@@H]1[C@@H](n1cnc3c(NCc4cccc(Cl)c4)nc(C#CCCCC(=O)NCCN)nc31)[C@H](O)[C@@H]2O [Compound 12]
- % inhibition of radioligand binding A2A [5]: (81%)

SMILES: O[C@@H]1[C@H](O)[C@@H]2C[C@@H]2[C@H]1n1cnc2c(NCc3cccc(I)c3)nc(Cl)nc21 [Compound 2c, reference compound]
- agonist character at hA3AR in the adenylate cyclase (cAMP) assay [1]: partial agonists
- % efficacy, A3 (stimulation of [35S]GTPγS binding) [4]: 1.0 ± 3.2%

SMILES: CCN1C(=CC=CC=CC2=[N+](CCCCCC(=O)NCCNC(=O)CCC#Cc3nc(NCc4cccc(Cl)c4)c4ncn(C5C(O)C(O)C6(C(=O)NC)CC56)c4n3)c3ccc(S(=O)(=O)O)cc3C2(C)C)C(C)(C)c2cc(S(=O)(=O)[O-])ccc21 (stereo not drawn) [Compound 18, (1′S,2′R,3′S,4′S,5′S)-4′-[6-(3-Chlorobenzylamino)-2-(N-cyaiune(β-aminoethylaminocarbonyl)-1-butynyl)-9-yl]-2′,3′-dihydroxybicyclo[3.1.0]hexane-1′-carboxylic Acid N-Methylamide]
- agonist character at hA3AR in the adenylate cyclase (cAMP) assay [1]: full agonist
- Ki [2]: 4730 ± 1020 nM
- Ki [7]: 9.62 nM and 9.6 nM
- inhibition at 10 µM ([8]; read-out: % inhibition of radioligand binding A1): 36%

SMILES: O[C@@H]1[C@H](O)[C@@H]2C[C@@H]2[C@H]1n1cnc2c(NC3CCCC3)nc(Cl)nc21 [Compound 25]
- agonist character at hA3AR in the adenylate cyclase (cAMP) assay [1]: nearly full agonism; also recorded: full agonist
- fold reduction of affinity at A3AR on loss of the 5′-N-methyluronamide group ([3]; 25 versus 4): 32 fold
- fold reduction of affinity at A1AR on loss of the 5′-N-methyluronamide group ([8]; 25 versus 4): 6 fold

SMILES: CNC(=O)[C@@]12C[C@@H]1[C@@H](n1cnc3c(NCc4cccc(Cl)c4)nc(C#CCCCC(=O)O)nc31)[C@H](O)[C@@H]2O [Compound 6]
- % inhibition of radioligand binding A2A [5]: (43%)

SMILES: O[C@@H]1[C@H](O)[C@@H]2C[C@@H]2[C@H]1n1cnc2c(NCc3cccc(Cl)c3)ncnc21 [Compound 22]
- agonist character at hA3AR in the adenylate cyclase (cAMP) assay [1]: partial

SMILES: CNC(=O)[C@]12C[C@@H]1[C@@H](n1cnc3c(NCc4cccc(Cl)c4)nc(C#CCCCC(=O)OC)nc31)[C@H](O)[C@@H]2O [Compound 9]
- % inhibition of radioligand binding A2A [5]: (49%)

SMILES: O[C@@H]1[C@H](O)[C@@H]2C[C@@H]2[C@H]1n1cnc2c(NCc3cccc(Br)c3)nc(Cl)nc21 [Compound 2b, (1R,2R,3S,4R,5S)-4-(6-(3-bromobenzylamino)-2-chloro-9H-purin-9-yl)bicyclo-[3.1.0]hexane-2,3-diol, reference compound]
- agonist character at hA3AR in the adenylate cyclase (cAMP) assay [1]: partial agonists
